Source: US9120793B2, “Triazolo-pyridine compound” (Eli Lilly and Company, priority 2013, dated 2015)

What was measured:
[1] = target: T1, mGPR-40 (mFFAR1) (Mus musculus, UniProt Q76JU9); test: Mouse beta-arrestin agonist assay with 1% FBS; format: cell-based
T1 construct: host or cells: U2OS
From the text: (§1) Human embryonic kidney (hEK293)-hFFAR1 cells are purchased from DiscoveRx™. Human osteosarcoma (U2OS) cells expressing mFFAR1 are developed by DiscoveRX™. These cells co-express the Prolink™ (PK)-tagged GPR-40 and the Enzyme Acceptor™ (EA)-tagged beta-arrestin fusion proteins. If activation of the GPR-40 stimulates beta-arrestin recruitment, it would force complementation of the beta galactosidase (B-gal) enzyme fragments, forming a B-gal enzyme that generates a chemiluminescent signal using the DiscoveRx PathHunter™ detection kit. Cells are incubated overnight at 5,000 cells/well in 384 well plates in culture media containing 1% FBS (fetal bovine serum). Serial diluted compound in DMSO (2× dilutions to generate 20 concentrations) are step down diluted in culture media containing 1% FBS (fetal bovine serum) and added to cells with a final top concentration starting of 100 μM. After addition of compound, cells are incubated for 90 min at 37° C. in 5% CO2 incubator, and DiscoveRX™ kit detection reagents are added. Measurement of the chemiluminescent signal is ascertained with the Envision™ reader, after a 1-hour incubation at room temperature. Data are fit to a 4 parameter-fit logistics to determine EC50 values, % activity is measured versus maximum response to an internal standard GPR-40 agonist at 1 μM.

[2] = target: T2, hGPR-40 (hFFAR1) (Homo sapiens, UniProt O14842); test: Human beta-arrestin agonist assay with 1% FBS; format: cell-based
T2 construct: host or cells: HEK293
From the text: as §1

[3] = target: T3, human GPR-40 (hGPR-40) (Homo sapiens, UniProt O14842); test: Radioligand competition binding, in vitro binding affinity to GPR-40; conditions: 5 nM [3H] TAK-875; membranes of HEK293 cells overexpressing hGPR-40; Cheng-Prusoff
T3 construct: expressed in transfected cells; host or cells: HEK293 (membranes)
From the text: Competition curves are plotted as the percent specific inhibition versus concentration of compound and analyzed using a four parameter nonlinear regression fit with variable slope. […] See Cheng, Y. and Prusoff, W. H. (1973) “Relationship between the inhibition constant (Ki) and the concentration of inhibitor which causes 50 per cent inhibition (IC50) of an enzymatic reaction,” Biochem Pharmacol 22(23):3099-3108. […] (Mean±SEM; SEM=standard error of the mean.).

[4] = system: Male Balb/c mice; test: Intraperitoneal glucose tolerance test (ipGTT); format: in vivo; set-up: key to Effect on blood glucose, statistical significance compared to vehicle during ipGTT: *P < 0.05; **P < 0.01; ****P < 0.0001; ns: not significant
From the text: To examine the ability of the compound of Example 1 to activate GPR-40 in-vivo resulting in anti-diabetic efficacy, i.e. reduction in plasma glucose levels, an intraperitoneal glucose tolerance test (ipGTT) study is completed, and the data is shown for the compound of Example 1, below in Table 7.
Male Balb/c (Albino mice) mice (8-9 weeks of age) are single housed, and fed with normal rodent chow diet and water ad libitum. Animals are weighed; randomized by body weight; and their daily body weights are recorded. On the night before the study, animals are fasted overnight. In the morning, animals are dosed orally with compound of Example 1 or vehicle alone 60 minutes prior to the glucose tolerance test (glucose 2 g/kg, i.p.). Blood glucose levels are determined from tail bleeds taken at 0, 3, 7, 15, 30, and 60 min after glucose challenge. […] Percent lowering in glucose is calculated from the AUC data of the compound with respect to the AUC of vehicle group. The compound of Example 1 is orally administered at 0.1, 0.3, 1.0, 3.0, 10, or 30 mg/kg, and a positive control (3-[4-(2-methyl-benzyloxy)-phenyl]-hex-4-ynoic acid) is administered at 10 mg/kg.

[5] = versus internal standard GPR-40 agonist at 1 μM

T1 sequence (Q76JU9 whole entry): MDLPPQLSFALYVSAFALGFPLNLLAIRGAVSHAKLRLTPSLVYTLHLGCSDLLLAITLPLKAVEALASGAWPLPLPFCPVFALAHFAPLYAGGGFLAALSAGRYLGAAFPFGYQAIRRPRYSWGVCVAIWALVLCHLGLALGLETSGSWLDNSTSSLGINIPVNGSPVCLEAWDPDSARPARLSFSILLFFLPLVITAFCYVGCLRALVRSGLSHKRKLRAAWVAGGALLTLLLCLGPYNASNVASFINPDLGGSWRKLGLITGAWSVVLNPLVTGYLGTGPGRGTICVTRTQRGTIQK
T1 sequence (P32121 whole entry partner): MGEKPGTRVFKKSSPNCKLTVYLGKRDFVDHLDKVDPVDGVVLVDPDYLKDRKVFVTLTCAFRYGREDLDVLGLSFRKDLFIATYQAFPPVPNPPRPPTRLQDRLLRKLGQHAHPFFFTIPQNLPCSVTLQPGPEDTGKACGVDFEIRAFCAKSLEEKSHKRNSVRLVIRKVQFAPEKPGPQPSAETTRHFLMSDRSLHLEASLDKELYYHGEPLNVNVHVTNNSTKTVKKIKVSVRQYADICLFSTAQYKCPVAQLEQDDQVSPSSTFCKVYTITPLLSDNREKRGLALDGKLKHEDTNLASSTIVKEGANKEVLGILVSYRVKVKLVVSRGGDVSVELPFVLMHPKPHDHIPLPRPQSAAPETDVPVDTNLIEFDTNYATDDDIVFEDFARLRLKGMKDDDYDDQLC
T2 sequence (O14842 whole entry): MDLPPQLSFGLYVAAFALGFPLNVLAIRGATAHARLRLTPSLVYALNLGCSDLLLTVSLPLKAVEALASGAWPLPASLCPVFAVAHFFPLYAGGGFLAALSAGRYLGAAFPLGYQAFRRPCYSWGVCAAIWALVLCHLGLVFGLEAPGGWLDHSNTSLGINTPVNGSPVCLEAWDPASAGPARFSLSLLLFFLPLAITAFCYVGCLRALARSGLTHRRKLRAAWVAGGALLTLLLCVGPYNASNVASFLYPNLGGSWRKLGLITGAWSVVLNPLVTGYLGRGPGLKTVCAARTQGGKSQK
T2 sequence (P32121 whole entry partner): as the sequence (P32121 whole entry partner) above
T3 sequence (O14842 whole entry): as the sequence (O14842 whole entry) above

SMILES: CC#C[C@@H](CC(=O)O)c1ccc(OCc2ccc3nc(-c4c(C)cccc4C)nn3c2)cc1 [Example 1, (3S)-3-[4-[[2-(2,6-Dimethylphenyl)-[1,2,4]triazolo[1,5-a]pyridin-6-yl]methoxy]phenyl]hex-4-ynoic acid]
- EC50 ([1]; U2OS cells expressing mFFAR1, 1% FBS, 90 min, read-out: mGPR-40 b-arrestin EC50): 3.63 nM
- mGPR-40 b-arrestin % stimulation max (FA) [1, 5]: 153%
- EC50 ([2]; hEK293-hFFAR1 cells, 1% FBS, 90 min, read-out: hGPR-40 b-arrestin EC50): 44.8 nM
- hGPR-40 b-arrestin % stimulation max (FA) [2, 5]: 128%
- Ki [3]: 14.9 nM
- glucose levels at the 15 minute time point ([4]; 30 mg/kg dose, oral): significantly lowered
- glucose levels at the 3 or 7 minute time points ([4]; Example 1 0.1-30 mg/kg oral, positive control 10 mg/kg): No concentration of compound of Example 1 or the positive control significantly lowered
- glucose levels at the 30 minute time point ([4]; Example 1 1.0, 10 and 30 mg/kg doses, positive control 10 mg/kg): significantly lowered
- glucose levels at the 60 minute time point ([4]; Example 1 3.0, 10 and 30 mg/kg doses, positive control 10 mg/kg): significantly lowered
- ED50 ([4]; Mus musculus, oral, 60 minutes prior to glucose 2 g/kg i.p., read-out: ED50 based on AUCs for glucose lowering): 7.6 mg/kg
- Effect on blood glucose, statistical significance compared to vehicle during ipGTT ([4]; dose 0.1 mpk oral, time 0 min): Ns
- Effect on blood glucose, statistical significance compared to vehicle during ipGTT ([4]; dose 0.1 mpk oral, time 3 min): ns
- Effect on blood glucose, statistical significance compared to vehicle during ipGTT ([4]; dose 0.1 mpk oral, time 7 min): ns
- Effect on blood glucose, statistical significance compared to vehicle during ipGTT ([4]; dose 0.1 mpk oral, time 15 min): Ns
- Effect on blood glucose, statistical significance compared to vehicle during ipGTT ([4]; dose 0.1 mpk oral, time 30 min): ns
- Effect on blood glucose, statistical significance compared to vehicle during ipGTT ([4]; dose 0.1 mpk oral, time 60 min): ns
- Effect on blood glucose, statistical significance compared to vehicle during ipGTT ([4]; dose 0.3 mpk oral, time 0 min): Ns
- Effect on blood glucose, statistical significance compared to vehicle during ipGTT ([4]; dose 0.3 mpk oral, time 3 min): ns
- Effect on blood glucose, statistical significance compared to vehicle during ipGTT ([4]; dose 0.3 mpk oral, time 7 min): ns
- Effect on blood glucose, statistical significance compared to vehicle during ipGTT ([4]; dose 0.3 mpk oral, time 15 min): ns
- Effect on blood glucose, statistical significance compared to vehicle during ipGTT ([4]; dose 0.3 mpk oral, time 30 min): ns
- Effect on blood glucose, statistical significance compared to vehicle during ipGTT ([4]; dose 0.3 mpk oral, time 60 min): ns
- Effect on blood glucose, statistical significance compared to vehicle during ipGTT ([4]; dose 1 mpk oral, time 0 min): Ns
- Effect on blood glucose, statistical significance compared to vehicle during ipGTT ([4]; dose 1 mpk oral, time 3 min): ns
- Effect on blood glucose, statistical significance compared to vehicle during ipGTT ([4]; dose 1 mpk oral, time 7 min): ns
- Effect on blood glucose, statistical significance compared to vehicle during ipGTT ([4]; dose 1 mpk oral, time 15 min): ns
- Effect on blood glucose, statistical significance compared to vehicle during ipGTT ([4]; dose 1 mpk oral, time 30 min): * (*P < 0.05)
- Effect on blood glucose, statistical significance compared to vehicle during ipGTT ([4]; dose 1 mpk oral, time 60 min): ns
- Effect on blood glucose, statistical significance compared to vehicle during ipGTT ([4]; dose 3 mpk oral, time 0 min): Ns
- Effect on blood glucose, statistical significance compared to vehicle during ipGTT ([4]; dose 3 mpk oral, time 3 min): ns
- Effect on blood glucose, statistical significance compared to vehicle during ipGTT ([4]; dose 3 mpk oral, time 7 min): ns
- Effect on blood glucose, statistical significance compared to vehicle during ipGTT ([4]; dose 3 mpk oral, time 15 min): ns
- Effect on blood glucose, statistical significance compared to vehicle during ipGTT ([4]; dose 3 mpk oral, time 30 min): ns
- Effect on blood glucose, statistical significance compared to vehicle during ipGTT ([4]; dose 3 mpk oral, time 60 min): ** (**P < 0.01)
- Effect on blood glucose, statistical significance compared to vehicle during ipGTT ([4]; dose 10 mpk oral, time 0 min): Ns
- Effect on blood glucose, statistical significance compared to vehicle during ipGTT ([4]; dose 10 mpk oral, time 3 min): ns
- Effect on blood glucose, statistical significance compared to vehicle during ipGTT ([4]; dose 10 mpk oral, time 7 min): ns
- Effect on blood glucose, statistical significance compared to vehicle during ipGTT ([4]; dose 10 mpk oral, time 15 min): ns
- Effect on blood glucose, statistical significance compared to vehicle during ipGTT ([4]; dose 10 mpk oral, time 30 min): **** (****P < 0.0001)
- Effect on blood glucose, statistical significance compared to vehicle during ipGTT ([4]; dose 10 mpk oral, time 60 min): **** (****P < 0.0001)
- Effect on blood glucose, statistical significance compared to vehicle during ipGTT ([4]; dose 30 mpk oral, time 0 min): Ns
- Effect on blood glucose, statistical significance compared to vehicle during ipGTT ([4]; dose 30 mpk oral, time 3 min): ns
- Effect on blood glucose, statistical significance compared to vehicle during ipGTT ([4]; dose 30 mpk oral, time 7 min): ns
- Effect on blood glucose, statistical significance compared to vehicle during ipGTT ([4]; dose 30 mpk oral, time 15 min): ** (**P < 0.01)
- Effect on blood glucose, statistical significance compared to vehicle during ipGTT ([4]; dose 30 mpk oral, time 30 min): **** (****P < 0.0001)
- Effect on blood glucose, statistical significance compared to vehicle during ipGTT ([4]; dose 30 mpk oral, time 60 min): **** (****P < 0.0001)
